Experimental data as given in patent US4647693A, “Antibiotics DO-248-A and B and process for preparing the same” (Shionogi & Co., Ltd., priority 1984, dated 1987).
Values after ≈ are worked out from the molar mass of the structure shown.

How the values were obtained:
[1] = system: M. tuberculosis R-18 (Kanamycin and rifanpicin resistant strain); test: MIC, two-fold dilution, Dubos Tween albumin liquid medium; assay type: cell-based; conditions: Mycobacterium tuberculosis, 336 h, read-out: minimal inhibitory concentration (MIC)
[2] = system: M. tuberculosis R-15 (Rifanpicin resistant strain); test: as above; assay type: cell-based; conditions: Mycobacterium tuberculosis, 336 h, read-out: minimal inhibitory concentration (MIC)

SMILES | MIC [1] [µg/mL] | MIC [2] [µg/mL]
CC(C)c1c(O)cc(C(NC(=N)N)C(=O)NCC(=O)O)cc1O (stereo not drawn) [DO-248-A, N-(α-guanidino-3,5-dihydroxy-4-isopropylphenylacetyl)glycine] | 0.025 (≈ 0.0771 µM) | 0.1 (≈ 0.308 µM)
NC[C@H]1O[C@H](O[C@H]2[C@H](O)[C@@H](O[C@H]3O[C@H](CO)[C@@H](O)[C@H](N)[C@H]3O)[C@H](N)C[C@@H]2N)[C@H](O)[C@@H](O)[C@@H]1O [KM, kanamycin] | > 25 | < 0.001
CO[C@H]1/C=C/O[C@@]2(C)Oc3c(C)c(O)c4c(O)c(c(/C=N/N5CCN(C)CC5)c(O)c4c3C2=O)NC(=O)/C(C)=C\C=C\[C@H](C)[C@H](O)[C@@H](C)[C@@H](O)[C@@H](C)[C@H](OC(C)=O)[C@@H]1C [RFP, rifampicin] | > 25 | > 25
